{
  "source": "patent EP0551200A1",
  "about": "“Protein phosphatase inhibitors for use in therapy” (priority 1992, dated 1993)",
  "key": {"Egr-1 mRNA [1]": {"tested_on": "Egr-1 mRNA", "assay": "Northern blot analysis of Egr-1 mRNA induction in quiescent primary human fibroblasts", "type": "cell-based", "experimental": "Quiescent human fibroblasts were incubated with TNF (500 units/ml) (a) or OA (500 nM) (b) for 0, 30, 60 min after which total cellular RNA was extracted. Blots of RNA from these cells were hybridized to radiolabeled (10⁶ cpm/ml) Egr-1 cDNA probe. c, the blot in b was stripped and reprobed with c-jun cDNA. Note: Egr-1 mRNA probe was not completely stripped from the blot. The autoradiograph of the blot is presented. d, regularly maintained cells were incubated wither with no additions (control, 0 time) or with OA for 1, 3, 5, 7 h and Northern analysis was carried out with an IL-6 cDNA probe (ATCC, Rockville, MD, US).\n(§1) 10 µg of RNA was applied to each lane and subjected to Northern blot analysis using an Egr-1 specific cDNA probe [1.6 kb Bgl II fragment (Sukhatme et al, Cell 53, 37-48, 1988)]. The same blots were rehybridized with actin or GADPH cDNA for normalizing the amount of RNA loaded. The blots were dried and autoradiographed. • (A). Time course of okadaic acid-induced Egr-1 and c-jun messages in primary human fibroblasts. Quiescent human fibroblasts were induced with 1 µM of okadaic acid for the time periods indicated. […] Time course of okadaic acid-induced Egr-1 message in Balb/c 3T3 cells. Quiescent Balb/c 3T3 cells were induced with okadaic acid (0.5µM) for the times indicated. • (C). Concentration dependent induction of Egr-1 message by okadaic acid in Balb/c 3T3 cells. Quiescent Balb/c 3T3 cells were induced with the indicated concentrations of okadaic acid for 1 h. As controls, different concentrations of DMSO were included. These corresponded to the amounts present in 0.25 µM okadaic acid (0.025% dimethyl sulphoxide (DMSO)) 0.5 µM okadaic acid (0.05% DMSO) and 1 µM okadaic acid (0.1%). • (D). Concentration dependent and time course induction of Egr-1 message by calyculin A. Quiescent Balb/c 3T3 cells were induced with different concentrations of calyculin A for 1 h. Northern analysis of this dose-dependent induction by calyculin A is shown on the left panel of the figure. […] Northern analysis of this time course induction by calyculin A is shown in the right panel of the figure. The same blot was rehybridized with pCMV-fos (Curran et al, Oncogene 2, 79-84, 1987) and pCMV-jun (Rauscher et al, 1988) shown in the middle panel. The blot was dried and autoradiographed.\nCells were incubated with either 0.5 µM of okadaic acid or 10 µg/ml of cycloheximide as well as with 0.5 µM of okadaic acid and 10 µg/ml of cycloheximide for 1.5, 3 or 6 h. Cells were harvested, RNA isolated and subjected to Northern blot analysis. The blot was probed with Egr-1 or actin cDNA.\nQuiescent primary human fibroblasts were incubated with okadaic acid (OA) or TPA for 1 or 3 h. The concentrations of OA and TPA were 0.5 µM and 120 ng/ml, respectively. The concentration of 1-(5-isoquinolinylsulfonyl)-2-methylpiperazine dihydrochloride (H7) and N-(2-guanidinoethyl)-5-isoquinolinesulphonamide dihydrochloride (HA1004) used was 25 µM. The cells were pre-treated for 15 min with H7 or HA1004 before they were induced by OA or TPA for 1 or 3 h. Cells were harvested, RNA was isolated and subjected to Northern blot analysis. The blot was probed with Egr-1 or GADPH cDNA. • (B). As a positive control, primary human fibroblasts were treated with TPA (30 ng/ml) for 1 h (1st lane). The fibroblasts were also pre-treated with H7 (25 µM) or HA1004 (25 µM) for 15 min before treatment with TPA for 1 h (2nd and 3rd lanes respectively). […] The blot was probed with Egr-1 or actin cDNA. • (C). Quiescent Balb/c 3T3 cells were incubated with OA, TPA or dBt-cAMP for 1 h or pre-treated with H7 (25 µM) or HA1004 (25 µM) for 15 min and then incubated with each of the agonists for 1 h. Cells were harvested, RNA was isolated and subjected to Northern blot analysis. […]"}, "Egr-1 mRNA [2]": {"tested_on": "Egr-1 mRNA", "assay": "cells", "type": "cell-based, mouse", "experimental": "as §1\nQuiescent primary human fibroblasts were incubated with okadaic acid (OA) or TPA for 1 or 3 h. The concentrations of OA and TPA were 0.5 µM and 120 ng/ml, respectively. The concentration of 1-(5-isoquinolinylsulfonyl)-2-methylpiperazine dihydrochloride (H7) and N-(2-guanidinoethyl)-5-isoquinolinesulphonamide dihydrochloride (HA1004) used was 25 µM. The cells were pre-treated for 15 min with H7 or HA1004 before they were induced by OA or TPA for 1 or 3 h. Cells were harvested, RNA was isolated and subjected to Northern blot analysis. The blot was probed with Egr-1 or GADPH cDNA. • (B). As a positive control, primary human fibroblasts were treated with TPA (30 ng/ml) for 1 h (1st lane). The fibroblasts were also pre-treated with H7 (25 µM) or HA1004 (25 µM) for 15 min before treatment with TPA for 1 h (2nd and 3rd lanes respectively). […] The blot was probed with Egr-1 or actin cDNA. • (C). Quiescent Balb/c 3T3 cells were incubated with OA, TPA or dBt-cAMP for 1 h or pre-treated with H7 (25 µM) or HA1004 (25 µM) for 15 min and then incubated with each of the agonists for 1 h. Cells were harvested, RNA was isolated and subjected to Northern blot analysis. The concentration of each agonist used was as follows: lane a: 0.5 µM of OA, lane b: 100 ng/ml of TPA, lane c: 1 mM of dBt-cAMP, lane d: H7 plus OA (0.5 µM), lane e: H7 plus TPA (100 ng/ml), lane f: H7 plus dBt-cAMP (1 mM), lane g: HA1004 plus OA (0.5 µM), lane h: HA1004 plus TPA (100 ng.ml), lane i: HA1004 plus dBt-cAMP (1mM). The blot was probed with Egr-1 or GADPH cDNA.\nCell Cultures and Reagents. Human diploid foreskin fibroblasts were a gift from Dr J Vilcek (New York University, New York). The cells were grown in MEM supplemented with 10% fetal bovine serum (Hyclone, Logan, UT, US), Mouse Balb/c 3T3 cells were purchased from the American Type Culture Collection and grown in Dulbecco's MEM (DMEM) supplemented with 10% fetal bovine serum. Okadaic acid, calyculin A, H7, and HA1004 were purchased from Biomol Research Laboratories (Plymouth Meeting, PA, US). TPA, puromycin and dBt-cAMP were purchased from Sigma (St Louis, MO, US) 1 mM stock solutions of okadaic acid or calyculin A were solubilized in DMSO. [³²P]orthophosphate and other radioactive chemicals were purchased from Du Pont-New England Nuclear (Boston, MA). […]"}, "c-fos and c-jun": {"tested_on": "c-fos and c-jun", "assay": "Northern blot analysis of c-fos and c-jun in Balb/c 3T3 cells", "type": "cell-based, mouse", "settings": "15 nM time course", "experimental": "10 µg of RNA was applied to each lane and subjected to Northern blot analysis using an Egr-1 specific cDNA probe [1.6 kb Bgl II fragment (Sukhatme et al, Cell 53, 37-48, 1988)]. The same blots were rehybridized with actin or GADPH cDNA for normalizing the amount of RNA loaded. The blots were dried and autoradiographed. • (A). Time course of okadaic acid-induced Egr-1 and c-jun messages in primary human fibroblasts. Quiescent human fibroblasts were induced with 1 µM of okadaic acid for the time periods indicated. […] Time course of okadaic acid-induced Egr-1 message in Balb/c 3T3 cells. Quiescent Balb/c 3T3 cells were induced with okadaic acid (0.5µM) for the times indicated. • (C). Concentration dependent induction of Egr-1 message by okadaic acid in Balb/c 3T3 cells. Quiescent Balb/c 3T3 cells were induced with the indicated concentrations of okadaic acid for 1 h. As controls, different concentrations of DMSO were included. These corresponded to the amounts present in 0.25 µM okadaic acid (0.025% dimethyl sulphoxide (DMSO)) 0.5 µM okadaic acid (0.05% DMSO) and 1 µM okadaic acid (0.1%). • (D). […]\nCell Cultures and Reagents. […] The blots were autoradiographed and quantitated with the aid of the Visage 2000 Image System (BioImage Products, Ann Arbor, MI, US). […]"}, "Egr-1 protein": {"tested_on": "Egr-1 protein", "type": "cell-based", "settings": "2 h treatment, data not shown", "experimental": "Quiescent human fibroblasts were stimulated with MEM containing 0.5 µM okadaic acid in the presence or absence of cycloheximide (10 µg/ml) for the times indicated in Fig. 11. […] Treatment of cells with cycloheximide enhanced the induction of Egr-1 mRNA by okadaic acid at 1.5 and 3 h (Fig. 11). Similarly puromycin, like cycloheximide, also \"superinduces\" the induction of the Egr-1 mRNA by okadaic acid (data not shown). […] However, in view that protein phosphatase 1 (PP1) and protein phosphatase 2A (PP2A) regulate enzymes associated with cellular protein synthesis (Cohen, Annu. Rev. Biochem. 58, 453-508, 1989) the effect of okadaic acid on protein synthesis in mouse and human fibroblasts was also measured. […] By then the Egr-1 mRNA message was already induced. A corollary to this is a comparison of the amount of ³⁵S-methionine labelled Egr-1 protein immunoprecipitated by R5232 antibodies from protein phosphatase inhibitor-treated and control cells. […] Thus, the induction of the Egr-1 gene by phosphatase inhibitors is unlikely to be mediated by their late inhibitory effects on cellular protein synthesis."}, "human fibroblasts": {"tested_on": "human fibroblasts", "assay": "Early protein phosphorylation changes in 32P-labeled cells, two-dimensional gel electrophoresis with computerized densitometry", "type": "cell-based", "quoted_text": "The cells were then subjected to analysis by high resolution two-dimensional gel electrophoresis combined with computerized imaging as previously described (Guy et al, J. Biol. Chem. 266, 14343-14352, 1991).\nRadiolabeling of Cells and Cell Lysis - For labeling with [³²P]orthophosphate cells were plated onto 90 mm plastic tissue culture dishes and incubated for 3 days for the cells to become confluent. Immediately before labeling, the media was removed and the cells were washed twice with 5 ml of phosphate- and serum-free media (150 mM NaCl, 5 mM MgCl₂, 5 mM KCl, 1.6 mM CaCl₂, 0.5% glucose, 10 mM Tris, 0.1% bovine serum albumin, pH 7.4) before the addition of 1 mCi/ml of [³²P]orthophosphate in 3 ml of the same media to each plate. The plates were incubated at 37°C in a humidified CO₂ incubator for 2 h before the addition of the okadaic acid or other agonists at the concentrations and for the times indicated in the figures and table. The agonists were reconstituted in aqueous buffered solution or in dimethyl sulfoxide. […] At the completion of labeling the media was removed, and the cells were rapidly washed twice with 5 ml of ice-cold phosphate-buffered saline before being solubilised in 200 µl of cytosol extraction buffer (10mM Tris-HCl, 50 mM EDTA, 50 mM NaCl, 30 mM sodium pyrophosphate, 50 mM NaF, 100µM Na₃VO₄, 0.65% Nonidet P-40, 2 mM leupeptin, 2mM phenylmethylsulfonyl fluoride, pH 7.4). The lysate was collected and centrifuged for 5 min at 14,000 rpm. The pellet containing the nuclear fraction (including the cytoskeletal-membrane fractions) was separated from the cytosolic fraction. Both fractions were lyophilized.\nTwo-dimensional Gel Electrophoresis - The lyophilized fractions (each of approximately 12 µg) were subjected to isoelectric focusing for 18,000 V/h with pH 3-10 ampholytes using the Millipore Investigator two-dimensional electrophoresis system (Millipore). Following this, the first-dimension gel was extruded and equilibrated in SDS buffer for 2 min before being loaded onto the second dimension 12.5% SDS-polyacrylamide gel. The gel was fixed, dried and ³²P-labeled polypeptides were located by autoradiography by using intensifying screens at -80°C. For measurement of the pH profile, carbamylated protein standards (Pharmacia LKB Biotechnology Inc.) were co-run on duplicate gels and related to proteins of known pI on previously calibrated samples. Molecular weight marker proteins from Sigma were detected by Coomassie Blue staining and marked on the autoradiogram. ³²P-Labeled 27 hsp complex prepared from human fibroblasts heat shocked at 43°C for 30 min was also used as a marker.\nQuantitative Determination of Protein Phosphorylation - The amount of protein phosphorylation on autoradiographs derived from cytosolic membrane or antibody-precipitated preparations containing equal amounts of protein were analyzed by computerized densitometry using a Visage 2000 Image analysis system (BioImage Products, Ann Arbor, MI, US).\nThe ³²P-labeled protein spots are resolved and detected by autoradiography of the high definition two-dimensional gel electrophoresis of cytosolic extracts prepared from ³²P-labeled human fibroblasts. The radioactive spots (each representing one or more phosphoproteins) are analyzed by computerized densitometry. Each spot is arbitrarily assigned a number. […]"}},
  "note": "Like-named read-outs stand apart in the source and are kept apart here.",
  "data": [
    {"compound": "CC1CNCCN1S(=O)(=O)c1cccc2cnccc12.Cl.Cl", "note": "(stereo not shown) [H7, 1-(5-isoquinolinylsulfonyl)-2-methylpiperazine dihydrochloride]", "values": [
      {"measurement": "block of induction of Egr-1 message by okadaic acid or TPA (in words)", "setting": "Egr-1 mRNA [1]; 25 µM, 15 min pre-treatment", "value": "effectively blocked"},
      {"measurement": "block of induction of Egr-1 message by okadaic acid or TPA (in words)", "setting": "Egr-1 mRNA [2]; 25 µM, 15 min pre-treatment", "value": "effectively blocked"}
    ]},
    {"compound": "COC[C@@H]([C@H](O)[C@H](O)C(=O)NCC[C@H](C)c1nc(/C=C/C[C@@H]2O[C@]3(C[C@@H](O)[C@@H]2C)O[C@H]([C@H](C[C@H](O)[C@H](C)[C@H](O)[C@H](C)/C=C(C)/C(C)=C/C=C/C(C)=C\\C#N)OC)[C@H](OP(=O)(O)O)C3(C)C)co1)N(C)C", "note": "[calyculin A]", "values": [
      {"measurement": "induction of immediate-early genes c-fos and c-jun (in words)", "setting": "c-fos and c-jun", "value": "also induced"},
      {"measurement": "amount of 35S-methionine labeled Egr-1 protein relative to control cells", "setting": "Egr-1 protein", "value": "4 to 5", "unit": "fold"},
      {"measurement": "concentration up to which induction of Egr-1 mRNA increased dose-dependently", "setting": "Egr-1 mRNA [2]; 1 h", "value": "up to 25 nM"},
      {"measurement": "concentration inducing an equivalent fold increase in Egr-1 mRNA", "setting": "Egr-1 mRNA [2]; 1 h, calyculin A compared with okadaic acid", "value": 10, "unit": "nM"}
    ]},
    {"compound": "C[C@@H]1C[C@@H]([C@H](O)CC2CC(=O)NC(=O)C2)C(=O)[C@@H](C)C1", "note": "[cycloheximide]", "values": [
      {"measurement": "effect on the induction of Egr-1 mRNA by okadaic acid (in words)", "setting": "Egr-1 mRNA [1]", "value": "enhanced"},
      {"measurement": "induction of Egr-1 mRNA by the substance alone (in words)", "setting": "Egr-1 mRNA [1]", "value": "induced Egr-1 mRNA"}
    ]},
    {"compound": "COc1ccc(C[C@H](N)C(=O)N[C@H]2[C@@H](O)[C@H](n3cnc4c(N(C)C)ncnc43)O[C@@H]2CO)cc1", "note": "[puromycin]", "values": [
      {"measurement": "effect on the induction of Egr-1 mRNA by okadaic acid (in words)", "setting": "Egr-1 mRNA [1]; 0.5 µM okadaic acid, protein synthesis inhibitor", "value": "superinduces"}
    ]},
    {"compound": "O-tetradecanoylphorbol 13-acetate [TPA]", "values": [
      {"measurement": "pattern of early protein phosphorylation changes (in words)", "setting": "human fibroblasts", "value": "quite different from that produced by okadaic acid or TNF"}
    ]}
  ]
}
